Several values for one entry are separate records, joined by “and”; a condition that tells them apart may be missing. Identical values can stand only once. Toxic doses and inconclusive results are not listed.
Tested on: CD2F1 mice, P388/ADR leukemia ip, median survival T/C
Test: NCI In Vivo Anticancer Drug Screen. Data for tumor model P388 Leukemia resistant to Adriamycin; NSC 123127, Developed at Scr 08 (intraperitoneal) in CD2F1 (CDF1) mice
Details: endpoint: median survival time, higher = longer survival
Method: The antitumor activity of compounds was measured in mice bearing transplantable tumors. Survival or tumor size were measured and the results are expressed as the measurement made in the treated group (T) divided by the measurement made in the vehicle treated control group (C). The tumor model used in this assay is P388 Leukemia resistant to Adriamycin; NSC 123127, Developed at Scr 08 (intraperitoneal) in CD2F1 (CDF1) mice

[1] = dose: 3.12 mg/kg/injection, schedule: Q01DX005 (ip), vehicle: Klucel (hydroxypropylcellulose) (HPC)
[2] = dose: 6.25 mg/kg/injection, schedule: Q01DX005 (ip), vehicle: Klucel (hydroxypropylcellulose) (HPC)
[3] = dose: 12.5 mg/kg/injection, schedule: Q01DX005 (ip), vehicle: saline with Tween-80

COc1cccc2c1C(=O)c1c(O)c3c(c(O)c1C2=O)C[C@@](O)(C(=O)CO)C[C@@H]3OC1CC(N2CCOCC2)C(O)C(C)O1 (stereo partly drawn)
T/C (dose: 22.0 micrograms/kg/injection, schedule: Q04DX003 (iv), vehicle: saline + alcohol): 107 % of control | T/C (dose: 33.0 micrograms/kg/injection, schedule: Q04DX003 (iv), vehicle: saline + alcohol): 105 % of control | T/C (dose: 50.0 micrograms/kg/injection, schedule: Q04DX003 (iv), vehicle: saline + alcohol): 102 % of control | T/C (dose: 75.0 micrograms/kg/injection, schedule: Q04DX003 (iv), vehicle: saline + alcohol): 101 % of control

O=C1C=C(N2CC2)C(=O)C(N2CC2)=C1N1CC1
T/C (dose: 0.02 mg/kg/injection, schedule: Q01DX005 (ip), vehicle: saline): 180 % of control | T/C (dose: 0.04 mg/kg/injection, schedule: Q01DX005 (ip), vehicle: saline): 176 % of control and 223 % of control | T/C (dose: 0.08 mg/kg/injection, schedule: Q01DX005 (ip), vehicle: saline): 240 % of control and 294 % of control | T/C (dose: 0.16 mg/kg/injection, schedule: Q01DX005 (ip), vehicle: saline): 233 % of control and 294 % of control | T/C (dose: 0.32 mg/kg/injection, schedule: Q01DX005 (ip), vehicle: saline): 87 % of control and 110 % of control

CN(C)CCN1C(=O)c2cccc3cc(N)cc(c23)C1=O
T/C (dose: 7.0 mg/kg/injection, schedule: Q01DX009 (ip), vehicle: saline with Tween-80): 109 % of control and 117 % of control | T/C (dose: 11.0 mg/kg/injection, schedule: Q01DX009 (ip), vehicle: saline with Tween-80): 116 % of control | T/C (dose: 16.0 mg/kg/injection, schedule: Q01DX009 (ip), vehicle: saline with Tween-80): 106 % of control and 113 % of control | T/C (dose: 24.0 mg/kg/injection, schedule: Q01DX009 (ip), vehicle: saline with Tween-80): 112 % of control and 116 % of control

CN(C)[C@@H]1C(=O)C(C(=O)NCN2CCN(C(=N)N=C(N)N)CC2)=C(O)[C@@]2(O)C(=O)C3=C(O)c4c(O)cccc4[C@@](C)(O)[C@H]3C[C@@H]12
T/C (dose: 0.62 mg/kg/injection, schedule: Q01DX005 (ip), vehicle: saline): 113 % of control | T/C (dose: 1.25 mg/kg/injection, schedule: Q01DX005 (ip), vehicle: saline): 100 % of control | T/C (dose: 1.8 mg/kg/injection, schedule: Q01DX005 (ip), vehicle: suspension in saline): 97 % of control | T/C (dose: 2.5 mg/kg/injection, schedule: Q01DX005 (ip), vehicle: saline): 106 % of control | T/C (dose: 3.0 mg/kg/injection, schedule: Q01DX005 (ip), vehicle: suspension in saline): 115 % of control | T/C (dose: 5.0 mg/kg/injection, schedule: Q01DX005 (ip), vehicle: saline): 152 % of control | T/C (dose: 5.0 mg/kg/injection, schedule: Q01DX005 (ip), vehicle: suspension in saline): 107 % of control

CN=C(NC)c1ccc(NC(=O)/C=C\c2ccc(/C=C/C(=O)Nc3ccc(C(=NC)NC)cc3)cc2)cc1
T/C (dose: 1.56 mg/kg/injection, schedule: Q01DX005 (ip), vehicle: Klucel (hydroxypropylcellulose) (HPC)): 107 % of control | T/C [1]: 109 % of control | T/C [2]: 116 % of control

COC1CC2C=C(C)/C=C/C=C/C(=O)NC(c3ccccc3)C/C=C/CCC(O)CC(=O)C2=C1O (stereo not drawn)
T/C [1]: 101 % of control | T/C [2]: 116 % of control

COC(=O)C[C@](O)(CCCC(C)(C)O)C(=O)O[C@@H]1C(OC)=C[C@]23CCCN2CCc2cc4c(cc2[C@H]13)OCO4
T/C (dose: 0.87 mg/kg/injection, schedule: Q01DX009 (ip), vehicle: acid diluted with saline): 104 % of control and 109 % of control | T/C (dose: 1.3 mg/kg/injection, schedule: Q01DX009 (ip), vehicle: acid diluted with saline): 99 % of control

CC1=C(C(N)=O)C(c2ccccc2)NC(=S)N1 (stereo not drawn)
T/C [1]: 99 % of control | T/C [2]: 101 % of control | T/C (dose: 12.5 mg/kg/injection, schedule: Q01DX005 (ip), vehicle: Klucel (hydroxypropylcellulose) (HPC)): 98 % of control | T/C (dose: 25.0 mg/kg/injection, schedule: Q01DX005 (ip), vehicle: Klucel (hydroxypropylcellulose) (HPC)): 96 % of control and 107 % of control | T/C (dose: 50.0 mg/kg/injection, schedule: Q01DX005 (ip), vehicle: Klucel (hydroxypropylcellulose) (HPC)): 96 % of control

COc1cc2c(c3c1c(=O)c1ccccc1n3C)C=CC(C)(C)O2
T/C [3]: 115 % of control | T/C (dose: 25.0 mg/kg/injection, schedule: Q01DX005 (ip), vehicle: saline with Tween-80): 87 % of control | T/C (dose: 50.0 mg/kg/injection, schedule: Q01DX005 (ip), vehicle: saline with Tween-80): 90 % of control

O=C(Nc1ccccc1)c1c(O)[nH]c(=S)[nH]c1=O
T/C (dose: 30.0 mg/kg/injection, schedule: Q01DX009 (ip), vehicle: saline with Tween-80): 173 % of control | T/C (dose: 44.0 mg/kg/injection, schedule: Q01DX009 (ip), vehicle: saline with Tween-80): 181 % of control | T/C (dose: 67.0 mg/kg/injection, schedule: Q01DX009 (ip), vehicle: saline with Tween-80): 160 % of control | T/C (dose: 75.0 mg/kg/injection, schedule: Q01DX009 (ip), vehicle: saline with Tween-80): 170 % of control | T/C (dose: 100.0 mg/kg/injection, schedule: Q01DX009 (ip), vehicle: saline with Tween-80): 173 % of control and 181 % of control | T/C (dose: 125.0 mg/kg/injection, schedule: Q01DX009 (ip), vehicle: saline with Tween-80): 195 % of control | T/C (dose: 150.0 mg/kg/injection, schedule: Q01DX009 (ip), vehicle: saline with Tween-80): 197 % of control

CC1(C)N=C(N)N=C(N)N1c1ccc(CCCCc2ccc(S(=O)(=O)F)cc2Cl)c(Cl)c1
T/C (dose: 18.0 mg/kg/injection, schedule: Q01DX009 (ip), vehicle: saline with Tween-80): 87 % of control | T/C (dose: 27.0 mg/kg/injection, schedule: Q01DX009 (ip), vehicle: saline with Tween-80): 89 % of control and 101 % of control | T/C (dose: 40.0 mg/kg/injection, schedule: Q01DX009 (ip), vehicle: saline with Tween-80): 88 % of control and 102 % of control | T/C (dose: 60.0 mg/kg/injection, schedule: Q01DX009 (ip), vehicle: saline with Tween-80): 112 % of control | T/C (dose: 90.0 mg/kg/injection, schedule: Q01DX009 (ip), vehicle: saline with Tween-80): 91 % of control and 110 % of control | T/C (dose: 110.0 mg/kg/injection, schedule: Q01DX009 (ip), vehicle: saline with Tween-80): 115 % of control

OC(CBr)C(O)C(O)C(O)CBr (stereo not drawn)
T/C (dose: 30.0 mg/kg/injection, schedule: Q01DX009 (ip), vehicle: Klucel (hydroxypropylcellulose) (HPC)): 162 % of control

O=NN(CCCl)C(=O)NCCCl
T/C (dose: 5.0 mg/kg/injection, schedule: Q01DX001 (ip), vehicle: saline + alcohol): 108 % of control and 123 % of control | T/C (dose: 20.0 mg/kg/injection, schedule: Q01DX001 (ip), vehicle: saline + alcohol): 150 % of control and 195 % of control | T/C (dose: 40.0 mg/kg/injection, schedule: Q01DX001 (ip), vehicle: saline + alcohol): 270 % of control and 309 % of control | T/C (dose: 80.0 mg/kg/injection, schedule: Q01DX001 (ip), vehicle: saline + alcohol): 90 % of control

COc1ccc(CCN(C)CCCC(C#N)(c2ccc(OC)c(OC)c2)C(C)C)cc1OC (stereo not drawn)
T/C (dose: 8.0 mg/kg/injection, schedule: Q03HX006 (ip), vehicle: saline): 110 % of control | T/C (dose: 16.0 mg/kg/injection, schedule: Q03HX006 (ip), vehicle: saline): 104 % of control | T/C (dose: 32.0 mg/kg/injection, schedule: Q03HX006 (ip), vehicle: saline): 103 % of control

Nc1nc(F)nc2c1ncn2C1OC(COP(=O)(O)O)C(O)C1O (stereo not drawn)
T/C (dose: 60.0 mg/kg/injection, schedule: Q01DX009 (ip), vehicle: saline): 219 % of control and 239 % of control | T/C (dose: 90.0 mg/kg/injection, schedule: Q01DX009 (ip), vehicle: saline): 309 % of control and 429 % of control | T/C (dose: 134.0 mg/kg/injection, schedule: Q01DX009 (ip), vehicle: saline): 309 % of control and 445 % of control | T/C (dose: 200.0 mg/kg/injection, schedule: Q01DX009 (ip), vehicle: saline): 309 % of control and 394 % of control | T/C (dose: 250.0 mg/kg/injection, schedule: Q01DX009 (ip), vehicle: saline): 108 % of control

CO[C@@]12[C@H](COC(N)=O)C3=C(C(=O)C(C)=C(N)C3=O)N1C[C@@H]1N[C@@H]12
T/C (dose: 0.5 mg/kg/injection, schedule: Q01DX009 (ip), vehicle: saline with Tween-80): 178 % of control | T/C (dose: 1.0 mg/kg/injection, schedule: Q01DX009 (ip), vehicle: saline with Tween-80): 198 % of control and 207 % of control | T/C (dose: 2.0 mg/kg/injection, schedule: Q01DX009 (ip), vehicle: saline with Tween-80): 110 % of control and 117 % of control | T/C (dose: 3.6 mg/kg/injection, schedule: Q01DX001 (ip), vehicle: saline): 151 % of control | T/C (dose: 3.6 mg/kg/injection, schedule: Q01DX001 (ip), vehicle: water): 154 % of control | T/C (dose: 5.4 mg/kg/injection, schedule: Q01DX001 (ip), vehicle: saline): 177 % of control | T/C (dose: 5.4 mg/kg/injection, schedule: Q01DX001 (ip), vehicle: water): 162 % of control | T/C (dose: 12.0 mg/kg/injection, schedule: Q01DX001 (ip), vehicle: saline): 117 % of control | T/C (dose: 12.0 mg/kg/injection, schedule: Q01DX001 (ip), vehicle: water): 112 % of control

O=[N+]([O-])c1ccc([I+]c2ccccc2)cc1
T/C (dose: 6.25 mg/kg/injection, schedule: Q01DX005 (ip), vehicle: saline with Tween-80): 124 % of control | T/C [3]: 124 % of control | T/C (dose: 100.0 mg/kg/injection, schedule: Q01DX005 (ip), vehicle: saline with Tween-80): 155 % of control
